Measurements reported in patent publication US20210254000A1, “PROCESS FOR PRODUCING A T CELL COMPOSITION” (Juno Therapeutics, Inc., priority 2017, published 2021).
Read-outs that look alike come from different tables or passages of the source.

Columns and labels:
Ribo-S6 phosphorylation = test: Inhibition of ribosomal protein S6 phosphorylation in stimulated primary human T cells (flow cytometry); assay type: cell-based
Procedure: The dose effect of exemplary mTOR kinase inhibitors in primary human T cells was assessed by monitoring inhibition of ribosomal protein S6.
CD4+ and CD8+ T cells were isolated by immunoaffinity-based enrichment from leukapheresis samples from human donor subjects. Isolated CD4+ and CD8+ T cells were mixed 1:1 and stimulated with anti-CD3/anti-CD28 magnetic beads in the presence of increasing concentrations of an mTOR kinase inhibitor, PI-103, Compound 155, Compound 63, or Compound 246. The T cell cultures were incubated overnight (approximately 16 hr) at 37° C. Following incubation in the presence of PI-103, Compound 155, Compound 63, or Compound 246, T cells were assessed for intracellular S6 phosphorylation and co-stained for surface expression of CD4 or CD8, by flow cytometry.

[1] = test system: engineered CD8+ and CD4+ T cells; test: T cell expansion of anti-CD19 CAR-transduced CD4+ and CD8+ T cells incubated with mTOR kinase inhibitor; assay type: cell-based
Procedure: Separate compositions of CD4+ and CD8+ cells were isolated from human leukapheresis samples by immunoaffinity-based enrichment and cryofrozen. The CD4+ and CD8+ cells of the compositions were subsequently thawed and activated by separately culturing the cells under stimulating conditions in the presence of anti-CD3/anti-CD28 magnetic beads and recombinant IL-2, IL-7 and/or IL-15 for approximately 20 hours. Cells were then transduced with a viral vector encoding an anti-CD19 chimeric antigen receptor (CAR). After transduction, the CD4+ and CD8+ cells were separately incubated in the presence of an mTOR kinase inhibitor, either Compound 155, Compound 63, or Compound 246, at various concentrations. For controls, cells were incubated with media only, DMSO vehicle, or with 200 nM PI-103. Incubation was carried out at 37° C. for approximately 8 days post-thaw with one media change, at which point the compounds were re-added to the culture media at the same concentration.
The percent of CD8+ and CD4+ T cells at the end of the process as compared to the amount of cells seeded for culture following the transduction is shown in FIG. 2. The cutoff for selecting a tolerated dose was set at 70% of the mean values of the media and DMSO controls.

[2] = Homo sapiens, T-cell, CD8+ T cells, read-out: IC50 for inhibition of Ribo-S6 phosphorylation, CD8
[3] = Homo sapiens, CD4+ T cells, read-out: IC50 for inhibition of Ribo-S6 phosphorylation, CD4
[4] = T-cell, primary human CD4+/CD8+ T cells mixed 1:1, anti-CD3/anti-CD28 beads, approximately 16 hr, read-out: IC50 for the inhibition of S6 phosphorylation in the T cells

| SMILES | IC50 (Ribo-S6 phosphorylation; [2]) | IC50 (Ribo-S6 phosphorylation; [3]) | IC50 (Ribo-S6 phosphorylation; [4]) | highest tolerated dose resulting in similar CD8 and CD4 T cell expansion as vehicle control ([1]; human) | highest tolerated dose resulting in similar CD8 and CD4 T cell expansion as vehicle control ([1]; cutoff 70% of mean of media and DMSO controls, approximately 8 days post-thaw) |
| --- | --- | --- | --- | --- | --- |
| O=c1[nH]c2ncc(-c3ccc(-c4nc[nH]n4)cc3)nc2n1CCC1CCOCC1 [Compound 155, 6-(4-(2H-1,2,4-Triazol-3-yl)phenyl)-1-(2-(tetrahydro-2H-pyran-4-yl)ethyl)-1H-imidazo [4,5-b]pyrazine-2(3H)-one] | 127 nM | 121 nM | ~100 nM | 100 nM | – |
| CO[C@H]1CC[C@H](N2C(=O)CNc3ncc(-c4ccc(C(C)(C)O)nc4)nc32)CC1 [Compound 246, 7-(6-(2-hydroxypropan-2-yl)pyridin-3-yl)-1-((1r,4r)-4-methoxycyclohexyl)-3,4-dihydropyrazino[2,3-b]pyrazin-2(1H)-one] | 502 nM | 475 nM | ~500 nM | – | 100 nM |
